Reference: PubChem BioAssay AID1919005 (Molecular Pharmacology Branch, DTP, NCI, 2023)

Test system: 855422-203-R-J1-PDC complex spheroid growth
Assay: Anticancer human tumor 855422-203-R-J1-PDC patient-derived bladder carcinoma cell line growth inhibition [AhR]
Settings: for IC50: curve of first compound; for viability, T/C: stronger effect = lower value
Text: Multicellular complex tumor spheroid response to aryl hydrocarbon receptor antagonists in combination with a variety of drugs and investigational agents in selected tumor cell lines
The current study was undertaken to assess response to aryl hydrocarbon receptor antagonists in combination with standard-of-care drugs and investigational agents in solid tumor complex spheroid models. Complex spheroids include a stromal component modeled by human endothelial cells (HUVEC) and fibroblasts modeled by human mesenchymal stem cells (MSCs). The concentration ranges selected for each drug and investigational agent were based upon clinically achievable concentrations if the clinical Cmax of the agent was known.
Compounds. The drugs and investigational agents: BAY 2416964 (NSC825713), GNF351 (NSC835774), CH-223191 (NSC835775), CPI-455 (NSC825282), aza-TdCyd (NSC777586), decitabine (NSC127716), belinostat (NSC758774), entinostat (NSC756642), pevonedistat (NSC761192), tazemetostat (NSC777109), talazoparib (NSC765396), olaparib (NSC753686), selinexor (NSC780203), nedisertib (M3814, NSC802822), bortezomib (NSC756655), venetoclax (NSC766270), doxorubicin (NSC123127), elimusertib (BAY189344, NSC800525), ceralasertib (AZD6738, NSC777638), TAK-243 (NSC785004), alisertib (NSC759677), etoposide (NSC141540), topotecan (NSC609699), eribulin (NSC707389), gemcitabine (NSC613327), carboplatin (NSC241240), cisplatin (NSC119875), and SN-38 (NSC673596) were obtained from the National Cancer Institute (NCI) Developmental Therapeutics Program Chemical Repository (32). The FDA-approved anticancer drug set is available from the Developmental Therapeutics Program at https://dtp.cancer.gov/organization/dscb/obtaining/available plates.htm. […] The stock solutions were prepared in dimethyl sulfoxide (DMSO, Sigma-Aldrich, St. Louis, MO, cat. D2650), except for the platinum compounds which were prepared in saline (Quality Biological, Gaithersburg, MD, cat. 114-055-101), at 800-fold the tested concentration and stored at -70 degrees C prior to their use. All drugs and investigational agents were tested over a range starting from a high concentration at or near the clinical Cmax and decreasing in half-log increments. If the clinical Cmax for an agent had not been determined, the highest concentration tested was 10 microM (Table 1).
Cell Culture. All cells were maintained in an incubator at 37 degrees C and 5% CO2 with 95% humidity. The PDC lines were cultured according to standard operating procedures established by the NCI PDMR (https://pdmr.cancer.gov). Briefly, all PDCs were thawed and cultured in Matrigel-coated flasks prepared with a working solution of 1X Ham's F-12 nutrient mix, without supplementation (Invitrogen, Waltham, MA, cat. 11765054), 100 U/mL penicillin-streptomycin (Invitrogen, cat. 15140122), and 2.5% Matrigel (Corning Inc., Corning, NY, cat. 354248) for the first three passages. All PDCs were cultured in complete DMEM/F-12 media containing advanced DMEM/F-12 (Invitrogen, cat. 12634028), 4.9% defined fetal bovine serum, heat inactivated (HyClone Laboratories Inc., Logan, UT, cat. SH30070.03HI), 389 ng/mL hydrocortisone (Sigma-Aldrich, cat. H4001), 9.7 ng/mL human EGF recombinant protein (Invitrogen, cat. PHG0313), 23.4 microg/mL adenine (Sigma-Aldrich, cat. A2786), 97.3 U/mL penicillin-streptomycin (Invitrogen, cat. 15140122), 1.9 mM L-glutamine (Invitrogen, cat. 25030081), and 9.7 microM Y-27632 dihydrochloride (Tocris Bioscience, Bristol, United Kingdom, cat. 1254). The PDCs were cultured in complete DMEM/F12 media without 10 microM Y-27632 dihydrochloride for at least two passages prior to the screen. The established cell lines NCI-H1341 and […] were cultured in DMEM/F-12, HEPES (Invitrogen, cat. 11330032), 5% defined fetal bovine serum (HyClone Laboratories Inc., cat. SH30070.03), ITS premix universal culture supplement [insulin (5 microg/mL), transferrin (5 microg/mL), and selenious acid (5 ng/mL)] […]

[1] = second compound 0.1 µM, first compound 0.0316 µM
[2] = second compound 0.1 µM, first compound 0.1 µM
[3] = second compound 0.1 µM, first compound 0.316 µM
[4] = second compound 0.1 µM, first compound 1 µM
[5] = second compound 0.1 µM, first compound 3.16 µM
[6] = second compound 0.1 µM, first compound 10 µM
[7] = second compound 0.316 µM, first compound 0.0316 µM
[8] = second compound 0.316 µM, first compound 0.1 µM
[9] = second compound 0.316 µM, first compound 0.316 µM
[10] = second compound 0.316 µM, first compound 1 µM
[11] = second compound 0.316 µM, first compound 3.16 µM
[12] = second compound 0.316 µM, first compound 10 µM
[13] = second compound 1 µM, first compound 0.0316 µM
[14] = second compound 1 µM, first compound 0.1 µM
[15] = second compound 1 µM, first compound 0.316 µM
[16] = second compound 1 µM, first compound 1 µM
[17] = second compound 1 µM, first compound 3.16 µM
[18] = second compound 1 µM, first compound 10 µM
[19] = second compound 3.16 µM, first compound 0.0316 µM
[20] = second compound 3.16 µM, first compound 0.1 µM
[21] = second compound 3.16 µM, first compound 0.316 µM
[22] = second compound 3.16 µM, first compound 1 µM
[23] = second compound 3.16 µM, first compound 3.16 µM
[24] = second compound 3.16 µM, first compound 10 µM
[25] = second compound 10 µM, first compound 0.0316 µM
[26] = second compound 10 µM, first compound 0.1 µM
[27] = second compound 10 µM, first compound 0.316 µM
[28] = second compound 10 µM, first compound 1 µM
[29] = second compound 10 µM, first compound 3.16 µM
[30] = second compound 10 µM, first compound 10 µM
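Note: spheroids exposed to agents for seven days before readout.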
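Throughout, for viability, T/C: percent of DMSO vehicle control luminescence viability.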

SMILES	IC50 (second compound 0.1 µM)	IC50 (second compound 0.316 µM)	IC50 (second compound 1 µM)	IC50 (second compound 3.16 µM)	IC50 (second compound 10 µM)	viability, T/C [1]	viability, T/C [2]	viability, T/C [3]	viability, T/C [4]	viability, T/C [5]	viability, T/C [6]	viability, T/C [7]	viability, T/C [8]	viability, T/C [9]	viability, T/C [10]	viability, T/C [11]	viability, T/C [12]	viability, T/C [13]	viability, T/C [14]	viability, T/C [15]	other results
NS(=O)(=O)OCC1CC(n2ccc3c(NC4CCc5ccccc54)ncnc32)CC1O (stereo not given) + Cc1ccccc1N=Nc1ccc(NC(=O)c2ccnn2C)c(C)c1	3020 nM	2530 nM	1970 nM	1030 nM	484 nM	104%	110%	124%	98.5%	48.5%	16.3%	102%	113%	120%	90.3%	40.9%	16.5%	101%	115%	109%	viability, T/C [16]: 77.7%; viability, T/C [17]: 31.1%; viability, T/C [18]: 15.3%; viability, T/C [19]: 105%; viability, T/C [20]: 110%; viability, T/C [21]: 78.8%; viability, T/C [22]: 54.2%; viability, T/C [23]: 20.7%; viability, T/C [24]: 12%; viability, T/C [25]: 73.8%; viability, T/C [26]: 80.2%; viability, T/C [27]: 56.5%; viability, T/C [28]: 35.2%; viability, T/C [29]: 13.6%; viability, T/C [30]: 12.1%
COc1cc(C2c3cc4c(cc3C(OC3OC5COC(C)OC5C(O)C3O)C3COC(=O)C23)OCO4)cc(OC)c1O (stereo not given) + Cc1ccccc1N=Nc1ccc(NC(=O)c2ccnn2C)c(C)c1	468 nM	463 nM	505 nM	434 nM	368 nM	96.5%	93.2%	60.8%	26.7%	15.2%	7.04%	93.7%	96.6%	61%	24.6%	14.8%	6.03%	98.8%	95.7%	65%	viability, T/C [16]: 26.5%; viability, T/C [17]: 15.9%; viability, T/C [18]: 6.19%; viability, T/C [19]: 82.9%; viability, T/C [20]: 83.9%; viability, T/C [21]: 58.1%; viability, T/C [22]: 25.3%; viability, T/C [23]: 12.4%; viability, T/C [24]: 5.67%; viability, T/C [25]: 83%; viability, T/C [26]: 82.8%; viability, T/C [27]: 48.3%; viability, T/C [28]: 29.8%; viability, T/C [29]: 13.7%; viability, T/C [30]: 7.06%
COc1cc(C2c3cc4c(cc3C(OC3OC5COC(C)OC5C(O)C3O)C3COC(=O)C23)OCO4)cc(OC)c1O (stereo not given) + CC(CO)NC(=O)c1cc(-c2ccc(Cl)cc2)nn(-c2cnn(C)c2)c1=O	551 nM	573 nM	498 nM	327 nM	251 nM	104%	93.5%	72.9%	25.6%	12.7%	6.98%	94.2%	96%	75.6%	25.4%	12.1%	5.1%	98.5%	103%	64.3%	viability, T/C [16]: 25.6%; viability, T/C [17]: 11.1%; viability, T/C [18]: 4.66%; viability, T/C [19]: 89.5%; viability, T/C [20]: 91.8%; viability, T/C [21]: 48.2%; viability, T/C [22]: 19.4%; viability, T/C [23]: 9.59%; viability, T/C [24]: 3.77%; viability, T/C [25]: 96.2%; viability, T/C [26]: 82.3%; viability, T/C [27]: 37.1%; viability, T/C [28]: 24.3%; viability, T/C [29]: 8.67%; viability, T/C [30]: 4.32%
